From PMC6447767, “Simultaneous determination of the potent anti-tuberculosis regimen—Pyrazinamide, ethambutol, protionamide, clofazimine in beagle dog plasma using LC–MS/MS method coupled with 96-well format plate” (Journal of Pharmaceutical and Biomedical Analysis, 2019)
Read-outs that look alike come from different tables or passages of the source.

How the values were obtained:
[1] = Pharmacokinetic study of the PZA-EMB-PTO-CFZ combination after oral administration; conditions: beagle, dog, plasma, in combination; for AUC: AUC0-τ, 0 to 24/48 h; for AUC / AUC(0-inf) / Cmax / half-life: n = 6; for AUC(0-inf): AUC0-∞; for Tmax: n = 6, mean ± S.D.
[2] = Stability of analytes in Beagle dog plasma (freeze-thaw, long-term, auto-sampler, bench-top); conditions: for %Stability recoveries (Mean ± SD), Freeze-thaw (−80 °C) / %Stability recoveries (Mean ± SD), Bench-top 4 h (4 °C) / %Stability recoveries (Mean ± SD), Long-term 40 days (−80 °C) / Stability accuracy under the test conditions: Beagle dog plasma; for %Stability recoveries (Mean ± SD), Freeze-thaw (−80 °C): 3 freeze-thaw cycles; for %Stability recoveries (Mean ± SD), Freeze-thaw (−80 °C) / %Stability recoveries (Mean ± SD), Bench-top 4 h (4 °C) / %Stability recoveries (Mean ± SD), Long-term 40 days (−80 °C) / %Stability recoveries (Mean ± SD), Auto-sampler 27 h (18 °C): n = 3; for %Stability recoveries (Mean ± SD), Auto-sampler 27 h (18 °C): processed Beagle dog plasma samples; for Stability accuracy under the test conditions: summary over all stability conditions and QC levels
[3] = in vivo; conditions: beagle, dog, po
[4] = Solubility in organic solvents noted during sample preparation
[5] = beagle, dog
[6] = High Dose (double of standard dose)
[7] = Low Dose (half of standard dose)
[8] = T1/2, High Dose (double of standard dose)
[9] = T1/2, Low Dose (half of standard dose)
[10] = T1/2, Medium Dose (standard dose)
[11] = Medium Dose (standard: PZA 93.2, EMB 20.7, PTO 15.5, CFZ 5.2 mg/kg)

SMILES	AUC [1, 6] [µg·h/mL]	AUC [1, 7] [µg·h/mL]	AUC ([1]; Medium Dose (standard dose)) [µg·h/mL]	AUC(0-inf) [1, 6] [µg·h/mL]	AUC(0-inf) [1, 7] [µg·h/mL]	AUC(0-inf) ([1]; Medium Dose (standard dose)) [µg·h/mL]	Cmax [1, 6] [ng/mL]	Cmax [1, 7] [ng/mL]	Cmax ([1]; Medium Dose (standard dose)) [ng/mL]	half-life [1, 8] [h]	half-life [1, 9] [h]	half-life [1, 10] [h]	%Stability recoveries (Mean ± SD), Freeze-thaw (−80 °C) ([2]; HQC) [%]	%Stability recoveries (Mean ± SD), Bench-top 4 h (4 °C) ([2]; HQC) [%]	%Stability recoveries (Mean ± SD), Long-term 40 days (−80 °C) ([2]; HQC) [%]	%Stability recoveries (Mean ± SD), Auto-sampler 27 h (18 °C) ([2]; HQC) [%]	%Stability recoveries (Mean ± SD), Freeze-thaw (−80 °C) ([2]; LQC) [%]	%Stability recoveries (Mean ± SD), Bench-top 4 h (4 °C) ([2]; LQC) [%]	%Stability recoveries (Mean ± SD), Long-term 40 days (−80 °C) ([2]; LQC) [%]	%Stability recoveries (Mean ± SD), Auto-sampler 27 h (18 °C) ([2]; LQC) [%]	also measured
CC(C)/N=c1\cc2n(-c3ccc(Cl)cc3)c3ccccc3nc-2cc1Nc1ccc(Cl)cc1 [CFZ, clofazimine]	0.143 ± 0.0371	0.0175 ± 0.00967	0.0422 ± 0.0177	0.147 ± 0.0374	0.0238 ± 0.0118	0.0531 ± 0.0221	21.6 ± 7.32	3.69 ± 1.32	7.24 ± 2.58	3.63 ± 1.49	3.41 ± 1.31	4.03 ± 1.16	102.8 ± 2.3	96.1 ± 2.0	98.5 ± 2.3	103.3 ± 1.3	113.2 ± 3.8	92.5 ± 4.6	91.3 ± 1.0	95.3 ± 8.6	Stability accuracy under the test conditions [2]: 86.6–113.2%; Tmax [3]: 3.17 ± 0.98 h
CC[C@@H](CO)NCCN[C@@H](CC)CO [EMB, ethambutol]	58.7 ± 14.8	7.88 ± 1.22	18.5 ± 2.35	59.2 ± 15	7.98 ± 1.23	18.7 ± 2.34	21100 ± 4230	2930 ± 890	8720 ± 1150	12 ± 0.62	11.8 ± 1.31	12.7 ± 1.88	98.0 ± 2.6	86.6 ± 0.9	101.8 ± 0.9	94.0 ± 5.0	106.6 ± 6.2	100.5 ± 4.8	109.3 ± 4.7	103.2 ± 3.6	Tmax [1, 6]: 0.92 ± 0.38 h; Tmax [1, 7]: 1.25 ± 0.94 h; Tmax [1, 11]: 0.83 ± 0.2 h; Stability accuracy under the test conditions [2]: 86.6–113.2%; Solubility in acetonitrile [4]: poor solubility
CCCc1cc(C(N)=S)ccn1 [PTO, protionamide]																					Stability accuracy under the test conditions [5]: 86.6–113.2%
NC(=O)c1cnccn1 [PZA, pyrazinamide]	1970 ± 298	50.2 ± 7.6	1080 ± 187	1970 ± 298	50.2 ± 7.6	1080 ± 188	241000 ± 19200	57000 ± 11900	125000 ± 6700	2.62 ± 0.1	2.82 ± 0.08	2.7 ± 0.21	98.6 ± 0.7	95.4 ± 2.5	88.6 ± 0.9	102.5 ± 3.3	106.3 ± 3.0	95.2 ± 3.4	97.9 ± 2.0	101.1 ± 1.6	Tmax [1, 6]: 1.33 ± 0.26 h; Tmax [1, 7]: 1.13 ± 0.54 h; Tmax [1, 11]: 1.04 ± 0.6 h; Stability accuracy under the test conditions [2]: 86.6–113.2%
